Measurements taken from publication PMC7508583, “Discovery and Preclinical Development of Antigiardiasis Fumagillol Derivatives” (Antimicrobial Agents and Chemotherapy, 2020).
Read-outs that look alike come from different tables or passages of the source.

Columns and labels:
[1] = target: T1, human MetAP2 (Homo sapiens, UniProt P50579); test: MetAP2 fluorescence assay; assay type: biochemical; conditions: for IC50 of compound/IC50 of fumagillin: human MetAP2
T1 construct: purchased Bio-Techne/R&D Systems
Protocol: Based on the available crystal structures of MetAP2 complexes, the fumagillol core binds in a crowded environment, forming exquisite electrostatic interactions. Therefore, there is little room for the core fumagillol scaffold to adopt a different mode of binding. In contrast, the R group at C-6 can vary substantially because it is mostly solvent exposed. The L groups bind in a narrow site at the active-site entrance.
Recombinant human MetAP2 (Bio-Techne/R&D Systems) was diluted to 10 μg/ml in the assay buffer (50 mM HEPES, 0.1 mM CoCl2, 100 mM NaCl, pH 7.5). The substrate H-Met-Gly-Pro-7-amido-4-methylcoumarin (Bio-Techne/R&D Systems) was diluted to 500 μM with 2 μg/ml of the coupling enzyme, recombinant human dipeptidyl peptidase 4 (Bio-Techne/R&D Systems), in assay buffer. Fifty microliters of 10-μg/ml recombinant human MetAP2 was loaded into a flat-bottom black 96-well plate (Greiner Bio), and the reaction was initiated by adding 50 μl of the substrate/dipeptidyl peptidase 4 mixture. The reaction mixture was incubated at room temperature for 10 min, and the fluorescence was measured for 5 min at excitation and emission wavelengths of 380 nm and 460 nm, respectively, in the kinetic mode. For IC50 determination, 0.5 μl inhibitor solution was added to the reaction mixture. […] The reaction rates were fitted to a 4-parameter logistic nonlinear regression model using the KaleidaGraph tool, yielding the IC50 values and standard error.

[2] = in vitro; conditions: human; for efflux ratio at 120 min, 10 µM: Caco-2, pH 7.4; for Papp at 120 min, 10 µM: Caco-2, pH 7.4, Mean ± SE Papp
Description: (§1) Next, we tested the permeation of the compounds across polarized Caco-2 cell monolayers, a method that is widely used as an in vitro model of the human small intestinal mucosa to predict the absorption of orally administered drugs ([63], [64]). With noninvasive intestinal infections, there is no need to establish a high plasma concentration. Since a high rate of uptake through the host gut lining could increase compound toxicity, we sought to reduce gut absorption. […] Both apical-to-basal and basal-to-apical permeation values were measured to obtain information about efflux. […] The efflux machinery is currently unknown.
(§2) Passage 36 Caco-2 cells were used. The cells were cultured in Dulbecco’s modified Eagle’s medium (DMEM; 5 ml of 100 mM sodium pyruvate, 5 ml of 100× nonessential amino acids, 5 ml of penicillin-streptomycin, and 100 ml of heat-inactivated fetal bovine serum added to 385 ml of DMEM aseptically and mixed thoroughly), pH 7.4, at 37°C in 5% CO2. DMEM (250 μl) was added to the basal compartment of 96-well multiscreen Caco-2 cell plate consisting of high-pore-density polycarbonate (Millipore) with a 0.4-μm pore size and a 0.11-cm^2 active membrane area. The cells were seeded at a density of 12,000 cells/well (0.16 × 10^6 cells/ml) in the apical wells, with one well containing only medium as blank. The Caco-2 cell plate was placed in a CO2 incubator at 37°C for cell proliferation. On the day of assay, the medium was removed, washed twice with Hanks balanced salt solution (HBSS) buffer supplemented with 2% bovine serum albumin (BSA), pH 7.4, and incubated with the HBSS buffer for 30 min at 37°C. Wells with transepithelial electrical resistance values of greater than 230 Ω · cm^2 were selected for the experiments. […] The assay was performed in duplicate.
(§3) Seventy-five microliters of the test compounds was added to the apical wells, and 250 μl of HBSS buffer with 2% BSA was added to the basal wells. The plate was incubated in a CO2 incubator with shaking on a plate shaker at 150 rpm for 120 min, after which 25 μl of the basal samples was collected and processed.
(§4) Two hundred fifty microliters of test compounds was added to the basal wells, and 75 μl of HBSS buffer with 2% BSA was added to the apical wells. The plate was incubated in a CO2 incubator with shaking on a plate shaker at 150 rpm for 120 min, after which 25 μl of the apical samples was collected and processed.
(§5) For sample processing, a single-point calibration curve in HBSS buffer with 2% BSA was used. Donor samples were diluted 1:1 with HBSS containing 2% BSA, and receiver samples were diluted with 1:1 HBSS buffer and precipitated with 200 μl of acetonitrile containing internal standard. The samples were vortexed for 5 min at 1,000 rpm and centrifuged at 4,000 rpm for 10 min. One hundred microliters of the supernatant was diluted with 200 μl of water and analyzed by LC-MS/MS (with a Shimadzu ultrafast liquid chromatograph and an API 4000 LC-MS/MS system).
(§6) The apparent permeation coefficients (Papp) were calculated as Papp = (dQ/dT) × (1/C0) × (1/A), where dQ is the amount permeated to the receiver compartment of the 96-well plate, dT is the time of compound incubation, C0 is the initial compound concentration in the donor compartment of the well, and A is the surface area of the monolayer.

[3] = tested on: Caco-2 cell monolayers; test: in vitro; conditions: human, Caco-2, 120 min, 10 µM, pH 7.4
Description: as §1, §2, §3, §4, §5, §6

[4] = pH 3 degradation test; assay type: physicochemical
Protocol: The dramatic improvement in stability is not surprising, because the ester group of fumagillin is susceptible to hydrolysis at low pH. […] This should enable the administration of lower doses, reducing toxicity risks.
For accelerated temperature degradation tests at 75% relative humidity and at laboratory uncontrolled relative humidity, fumagillin and compounds 3 and 9 were incubated at 37°C under either controlled or uncontrolled humidity, and the samples were analyzed by HPLC every week for 4 weeks. Measurements were made in duplicate. Area-under-the-curve values were calculated to derive the percentage of compound remaining. For pH degradation, the compounds were dissolved in DMSO and mixed with pH 3.0 buffer. The samples were incubated at 25°C for up to 48 h. Samples were analyzed by HPLC every 2 h for the first 8 h and then after 24 and 48 h.

[5] = recombinant human MetAP2, fluorescence assay, read-out: Mean ± SE IC50, inhibition of human MetAP2

T1 sequence (P50579 whole entry): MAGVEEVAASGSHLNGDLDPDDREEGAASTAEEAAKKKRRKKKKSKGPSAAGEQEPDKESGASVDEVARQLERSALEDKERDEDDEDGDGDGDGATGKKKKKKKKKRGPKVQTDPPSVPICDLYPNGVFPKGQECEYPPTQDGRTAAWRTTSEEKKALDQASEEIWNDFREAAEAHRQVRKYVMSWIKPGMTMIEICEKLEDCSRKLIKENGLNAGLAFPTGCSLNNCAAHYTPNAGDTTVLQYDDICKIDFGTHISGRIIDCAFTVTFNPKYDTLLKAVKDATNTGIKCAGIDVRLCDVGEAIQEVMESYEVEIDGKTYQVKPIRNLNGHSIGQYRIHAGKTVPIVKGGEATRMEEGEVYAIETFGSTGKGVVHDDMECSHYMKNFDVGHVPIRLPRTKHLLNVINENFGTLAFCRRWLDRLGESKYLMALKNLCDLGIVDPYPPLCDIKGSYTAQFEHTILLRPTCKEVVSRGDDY

Compound | IC50 of compound/IC50 of fumagillin [1] | IC50 [1, 5] | efflux ratio at 120 min, 10 µM [2] | Papp at 120 min, 10 µM ([2]; apical to basal) | Papp at 120 min, 10 µM ([2]; basal to apical) | Caco-2 cell permeation as % of the permeation of fumagillin [3] | half-life ([4]; buffer, pH 3) | IC50 [1] | Papp at 120 min, 10 µM ([2]; apical to basal, Caco-2, 10 μM, 120 min) | Papp at 120 min, 10 µM ([2]; basal to apical, Caco-2, 10 μM, 120 min) | half-life ([4]; pH 3.0 buffer, pH 3, 25°C, read-out: Mean ± SE half-life at pH 3 and 25°C (converted))
COC1C(OC(=O)NC(=O)CN2CCOCC2)CCC2(CO2)C1C1(C)OC1CC=C(C)C (stereo not drawn) [Compound 3] | 1.68 | 0.67 ± 0.02 nM | 1.95 | 15.8 ± 0.94 ×10⁻⁶ cm/s | 30.4 ± 4.35 ×10⁻⁶ cm/s | 62% | 17.2 ± 2.26 h | – | – | – | –
CO[C@@H]1[C@H](OC(=O)Nc2ccc(C(=O)O)cc2)CC[C@]2(CO2)[C@H]1[C@@]1(C)O[C@@H]1CC=C(C)C [Compound 9, 4-(((((3R,4S,5S,6R)-5-methoxy-4-((2R,3R)-2-methyl-3-(3-methylbut-2-en-1-yl)oxiran-2-yl)-1-oxaspiro[2.5]octan-6-yl)oxy)carbonyl)amino)benzoic acid] | – | – | – | 12.6 ± 0.63 ×10⁻⁶ cm/s | 23.6 ± 8.14 ×10⁻⁶ cm/s | 53% | 43.2 ± 1.45 h | 1.1 ± 0.3 nM | – | – | –
CO[C@@H]1[C@H](OC(=O)/C=C/C=C/C=C/C=C/C(=O)O)CC[C@]2(CO2)[C@H]1[C@@]1(C)O[C@@H]1CC=C(C)C [Fumagillin, reference compound] | 1 | 0.4 ± 0.03 nM | 2.13 | – | – | – | – | – | 23.7 ± 2.52 ×10⁻⁶ cm/s | 48.8 ± 9.13 ×10⁻⁶ cm/s | 1.42 ± 0.05 h
